Assay [1] relates to HEY ovarian cancer cell line. In words: Cytotoxicity assay, HEY. Type of assay: cell-based. The settings on record: Homo sapiens; MTT, 72 h exposure (Table 2). Put shortly:
(§1)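 Cells were seeded, allowed to attach overnight, then exposed continuously to drug for 72 h. MTT (0.5 mg/mL final) was added for 4 h at 37 °C, formazan was dissolved in DMSO and absorbance read at 570 nm. IC50 came from log(drug concentration) versus percent cells killed, triplicate.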

The subject of assay [2] is 5637 bladder cancer cell line. In words: MTT cytotoxicity assay, 5637. Format: cell-based, human. The note with it: Homo sapiens, 72 h exposure. Put shortly: as §1
In general terms: Formazan colour is commonly taken as a measure of viable cells.

For assay [3], the system named is MDA-MB-435 cells. In words: Apoptosis assay, annexin V/propidium iodide flow cytometry. Type of assay: cell-based, human. Here is the method: To quantify drug-induced apoptosis, annexin V/propidium iodide staining was performed and analyzed by flow cytometry. MDA-MB-435 cells were treated with 10 μM compound 1, 2, or 4 for 24 and 48 h. After treatment, both floating and adherent cells were combined and subjected to annexin V/propidium iodide staining using an annexin V-FITC apoptosis detection kit (Oncogene Research Products, San Diego, Calif.) according to manufacturer's recommendations. Untreated control cells (48 h) were maintained in parallel to drugtreated groups. Double staining was used to distinguish between viable, early apoptotic, and necrotic or late apoptotic cells. The resulting fluorescence (FITC-A channel for green fluorescence and PE-A channel for red fluorescence) was measured by flow cytometry using a BD LSRII flow cytometer (BD Biosciences, San Jose, Calif.).
Background: In flow cytometry, cells or beads pass a laser one at a time.

In assay [4] the test system is doxorubicin-resistant NCI/ADR-RES ovarian cancer cell line. The assay is described as follows: Cytotoxicity assay, NCI/ADR-RES. Type of assay: cell-based. The note with it: Homo sapiens, MTT, 72 h exposure (Table 2). In short, it runs like this:
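Cells attached overnight, then continuously exposed to drug for 72 h. MTT (0.5 mg/mL final) added 4 h at 37 °C, formazan dissolved in DMSO, absorbance at 570 nm, triplicates; IC50 from log concentration versus % cells killed.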

The subject of assay [5] is p53. The assay is described as follows: Western blotting of p53 protein level. Type of assay: cell-based, human. The note with it: MDA-MB-435 cells, 1 μM, 24 to 72 hours. Here is the method: (§2) Cells were detached using 1×trypsin-EDTA solution and collected by centrifugation at 1200 rpm for 5 min. Cells were then lysed in 80 μL of 1× cell lysis buffer (50 mM Tris-HCl, pH 7.5, 150 mM NaCl, and 1% NP-40) and pelleted by centrifugation at 14,000 rpm for 20 min at 4° C. Protein concentration of the whole cell lysates was measured using BCA protein assay and equal amounts of total protein were resolved on a 10% tris-glycine gel via SDS-PAGE. The separated proteins were electro-blotted onto nitrocellulose membrane and blocked in 5% BSA/PBS for 1 h at room temperature. The membrane was probed with anti-p53 (SC-126, Santa Cruz Biotechnology Inc.), anti-caspase 9 (Cat. no. 9508; Cell Signaling Technology), anti-a-tubulin (SC-5286, Santa Cruz Biotechnology Inc.), and anti-GAPDH(Y3322GAPDH, Biochain Institute, Inc.) antibodies at 4 C overnight. Horseradish peroxidase-conjugated secondary antibodies (Invitrogen, Carlsbad, Calif.) in combination with SuperSignal Dura (ThermoFisher, Rockford, Ill.) enhanced chemiluminescence (ECL) solutions were used to visualize proteins of interest with a ChemiDoc Imaging system (Bio-Rad, Hercules, Calif.).

The subject of assay [6] is HCT116 p53^−/− colon cancer cell line. The assay is described as follows: MTT cytotoxicity assay, HCT116 p53-/-. Format: cell-based. The note with it: Homo sapiens, HCT-116, 72 h exposure. Put shortly:
as §1

The subject of assay [7] is HT29 colon cancer cell line. In words: MTT cytotoxicity assay, HT29. Type of assay: cell-based. The note with it: Homo sapiens, HT-29, 72 h exposure. Put shortly: as §1
In assay [8] the test system is MDA-MB-435 cells. In words: Mitochondrial superoxide production (MitoSOX Red). The settings on record: IC50 or 3×IC50, 24 hours. Type of assay: cell-based, human. Here is the method:
After drug treatments, a solution of 5 μM MitoSOX Red mitochondrial superoxide indicator (Invitrogen, Carlsbad, Calif.) was added, and cells were incubated for 10 min at 37° C. Cells were then washed three times with Hank's balanced salt solution (HBSS) to remove excess MitoSOX. After washing, cells were either observed under the fluorescence microscope or collected by trypsinization, washed twice with HBSS, and measured for superoxide production using a BD LSRII flow cytometer (BD Biosciences, San Jose, Calif., USA). Data were analyzed with the BD FACSDiva software package (BD Biosciences, San Jose, Calif., USA).

The subject of assay [9] is UMUC3 bladder cancer cell line. In words: MTT cytotoxicity assay, UMUC3. Type of assay: cell-based. The settings on record: Homo sapiens, 72 h exposure. In short, it runs like this:
as §1

The subject of assay [10] is caspase-9. In words: Western blotting of full-length caspase-9 protein level. Type of assay: cell-based, human. The note with it: MDA-MB-435 cells, 1 μM, after 24 hours, maintained up to 72 hours. Here is the method: as §2
In assay [11] the test system is SOD1. The assay is described as follows: Kinexus 628-antibody microarray. Type of assay: cell-based, human. The settings on record: MDA-MB-435 cells, 0.1 μM, 24 h. The text has this: To better understand the mechanisms of action of this class of novel PACMA compounds, we subjected cell lysates from untreated and compound 1-treated MDA-MB-435 cells to the Kinexus 628-antibody microarray analysis in search of potential signaling molecules; 350 pan-specific and 270 phospho-site antibodies were included to track changes in protein expression and phosphorylation status. The cell lysates were run in parallel on the Kinexus antibody chip and the differential binding of dye-labeled proteins was detected and quantified. Proteins with significant expression changes were then identified and used as the basis for signaling pathway interpretation.
MDA-MB-435 cells were treated with 0.1 μM compound 1 for 24 h. After treatment, cells were washed with ice-cold PBS to remove residual medium. Cells were then lysed in 200 μL of lysis buffer (20 mM MOPS, pH 7.0, 2 mM EGTA, 5 mM EDTA, 30 mM sodium fluoride, 60 mM β-glycerophosphate, pH 7.2, 20 mM sodium pyrophosphate, 1 mM sodium orthovanadate, 1 mM phenylmethylsulfonylfluoride, 3 mM benzamidine, 5 μM pepstatin A, 10 μM leupeptin, 1% Triton X-100, 1 mM dithiothreitol) and collected into a microcentrifuge tube. […] The supernatants were then transferred to a cleanmicrocentrifuge tube, and the protein concentrations were measured using BCA protein assay. […]

Assay [12] has as its system HCT116 p53^+/+ colon cancer cell line. The assay is described as follows: MTT cytotoxicity assay, HCT116 p53+/+. Type of assay: cell-based. The note with it: Homo sapiens, HCT-116, 72 h exposure. In short, it runs like this: as §1

Where only a bound is given, the exact number is not on record here.

What is called IC50 is the point on the concentration scale where inhibition reaches its midpoint.

On to `C#CC(=O)N(c1cc(OC)cc(OC)c1)C(C(=O)NC1CCCCC1)c1ccc(OC)cc1` (stereo not drawn) [Compound 1, N-[2-(Cyclohexylamino)-1-(4-methoxyphenyl)-2-oxoethyl]-N-(3,5-dimethoxyphenyl)Propynamide], for which the IC50 in assay [1] was 4.4 ± 3 µM; in [2], 2.2 ± 0.2 µM; in assay [4], 0.3 µM; in [6], 11 µM; in assay [7], 6.3 ± 1.5 µM; in assay [9], greater than 20 µM. For the same molecule, the IC50 in [12] is 12.5 ± 2.1 µM. The “induction of early apoptosis” value in assay [3] (10 μM, 24 hours) is “failed to induce early apoptosis”. Moreover, the “increase in early apoptotic cells” value in [3] (10 μM, 48 h) is listed as 8%. The “percentage of late apoptotic cells” value in assay [3] (10 μM, 48 hours) is on record as 35%. In addition, the induction of apoptosis result in [3] (24 and 48 hours) was “induce apoptosis”. Moreover, in assay [5], the p53 protein level entry was “up-regulated”. Also, in assay [8], the “mitochondrial superoxide production, flow cytometry” value was “induce significant amounts of superoxide”. In assay [10], the “decrease in full-length caspase-9 protein level” value is listed as 2 fold. The SOD1 expression entry in [11] was “up-regulated”.
